Laboratory results published in article PMC9578143, “Small-Molecule Ebselen Binds to YTHDF Proteins Interfering with the Recognition of N^6-Methyladenosine-Modified RNAs” (ACS Pharmacology & Translational Science, 2022).
Values joined by “and” are separate entries in the source; they are usually repeats but may differ in a detail not shown here. Equal values may be shown once. “Also recorded” adds a separate entry of the source. Read-outs that look alike come from different tables or passages of the source. Values belong to the molecule of their own block, whether it stands above or below them.

Tests used:
[1] = target: T1, YTHDF1 YTH domain (Homo sapiens, UniProt Q9BYJ9); assay: Tryptophan fluorescence quenching assay; format: binding
T1 construct: The human YTHDF1 YTH domain (amino acids 365–554, PDB: 4RCJ); host or cells: E. coli BL21(DE3)
T1 sequence (Q9BYJ9 365-554): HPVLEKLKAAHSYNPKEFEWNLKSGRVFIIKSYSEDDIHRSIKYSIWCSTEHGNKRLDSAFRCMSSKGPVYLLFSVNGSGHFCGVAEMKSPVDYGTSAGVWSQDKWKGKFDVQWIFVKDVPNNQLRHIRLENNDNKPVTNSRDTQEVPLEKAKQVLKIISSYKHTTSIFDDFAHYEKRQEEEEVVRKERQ
Description: Fluorescence was measured using a Tecan Infinite 200 Microplate reader (Tecan Group Ltd.), setting the […] wavelength at 288 nm and collecting the emission data at 330 nm.

[2] = target: T2, YTHDF1 domain (Homo sapiens, UniProt Q9BYJ9); assay: High-throughput screen, tryptophan quenching, Z-score; format: binding; conditions: 5 μM protein, compounds at 10 μM
T2 construct: The human YTHDF1 YTH domain (amino acids 365–554, PDB: 4RCJ); host or cells: E. coli BL21(DE3)
T2 sequence (Q9BYJ9 365-554): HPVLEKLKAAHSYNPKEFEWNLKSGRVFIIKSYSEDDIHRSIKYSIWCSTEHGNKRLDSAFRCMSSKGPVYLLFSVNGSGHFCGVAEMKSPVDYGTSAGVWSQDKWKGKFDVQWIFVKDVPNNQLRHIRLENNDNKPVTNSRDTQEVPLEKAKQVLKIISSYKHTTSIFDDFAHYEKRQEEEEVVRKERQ
Description: A Z factor of 0.53 was obtained. The high-throughput screen was performed by using an automatic liquid handling (Freedom EVO, Tecan), filling black 384-well plates with 15 μL of 5 μM protein in 20 mM Tris (pH 7.5), 150 mM NaCl, and 10% glycerol, and then by adding the library of compounds at a final concentration of 10 μM. Fluorescence was measured immediately after compound addition. The library used was the Spectrum Collection (Microsource Discovery System, Inc.), composed of 2560 compounds, of whom 60% are clinically used drugs, 25% natural products, and 15% other bioactive molecules. The Z-score was calculated as (X – μp)/σp, where X is the fluorescence intensity of the protein. Candidate molecules were considered all of the ones that were under the threshold of Z = −3, while all of the ones over that value were discarded.

[3] = target: T3, YTH domain of YTHDF1 / biotinylated RNA probe 5′-Bi-CCGAm6ACUGUC-3′ (Homo sapiens, UniProt Q9BYJ9); assay: AlphaScreen competitive assay, saturation binding; conditions: for Disruption of the YTH/RNA interaction (AlphaScreen, in words): YTHDF1 YTH domain
T3 construct: The human YTHDF1 YTH domain (amino acids 365–554, PDB: 4RCJ); host or cells: E. coli BL21(DE3)
T3 sequence (Q9BYJ9 365-554): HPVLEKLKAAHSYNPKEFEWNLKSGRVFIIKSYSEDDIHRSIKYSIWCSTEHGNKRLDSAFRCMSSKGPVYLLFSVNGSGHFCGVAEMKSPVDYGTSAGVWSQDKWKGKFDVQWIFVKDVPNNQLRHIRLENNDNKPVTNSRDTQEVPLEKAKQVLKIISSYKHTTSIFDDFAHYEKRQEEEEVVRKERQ
Description: The Amplified Luminescent Proximity Homogeneous Assay (ALPHA Assay) was performed in white 384-well Optiplates (PerkinElmer) in a final volume of 20 μL, and it was first optimized by titrating both the protein and the biotinylated RNA probe (5′-Bi-CCGAm6ACUGUC-3′, Dharmacon) to find the appropriate right protein/RNA ratio before the saturation of the detection signal. […] Anti-His acceptor beads (PerkinElmer) (20 μg/mL final concentration) and streptavidin donor beads (20 μg/mL final concentration) were added and the reaction was incubated in the dark at room temperature for 1 h to reach equilibrium. Light signals were detected with an Enspire Multimode Plate reader (PerkinElmer). […] The IC50 of ebselen was determined from the nonlinear regression fits of the data.

[4] = target: T4, YTHDF1 YTH domain (human, UniProt Q9BYJ9 365-554); assay: dynamic mass redistribution; conditions: EC50; immobilized protein; m6A; Fluorescence: 20 mM Hepes pH 7.5, 150 mM NaCl, 10% glycerol; REMSA: 20 mM Hepes pH 7.5, 50 mM KCl, BSA, 0.25% glycerol, gel at 4 C; AlphaScreen: 25 mM Hepes pH …
T4 sequence: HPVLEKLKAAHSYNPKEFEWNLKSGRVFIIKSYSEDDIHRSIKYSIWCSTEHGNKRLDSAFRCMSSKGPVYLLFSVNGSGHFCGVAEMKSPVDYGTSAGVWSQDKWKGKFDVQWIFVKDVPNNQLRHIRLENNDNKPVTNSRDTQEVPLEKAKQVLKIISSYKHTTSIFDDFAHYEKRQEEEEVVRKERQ

[5] = target: T4, YTHDF1 YTH domain; assay: tryptophan fluorescence quenching; 5 uM protein; Fluorescence: 20 mM Hepes pH 7.5, 150 mM NaCl, 10% glycerol; REMSA: 20 mM Hepes pH 7.5, 50 mM KCl, BSA, 0.25% glycerol, gel at 4 C; AlphaScreen: 25 mM Hepes pH; conditions: protein: recombinant; tags: 6xHis (C-terminal as stated); single strand
[6] = target: T4, YTHDF1 YTH domain; assay: tryptophan fluorescence quenching; EC50; 5 uM protein; Fluorescence: 20 mM Hepes pH 7.5, 150 mM NaCl, 10% glycerol; REMSA: 20 mM Hepes pH 7.5, 50 mM KCl, BSA, 0.25% glycerol, gel at 4 C; AlphaScreen: 25 mM Hepes pH; conditions: protein: recombinant; tags: 6xHis (C-terminal as stated); single strand
[7] = 5 μM protein, read-out: EC50 (tryptophan quenching)
[8] = Table 1, read-out: EC50 (μM) (Tryptophan quenching)

Molecule: 5-′CCGAm6ACUGUC-3′
EC50 [1, 7]: 0.14 µM and 0.139 µM

Molecule: O=C1C(Cl)=C(Cl)C(=O)c2c(O)ccc(O)c21 [2,3-DICHLORO-5,8-DIHYDROXYNAPTHOQUINONE]
Mean(FI.z-score) [2]: -3.853

Molecule: O=C1C(Cl)=C(Cl)C(=O)C(Cl)=C1Cl [CHLORANIL]
Mean(FI.z-score) [2]: -4.349

Molecule: O=c1c2ccccc2sn1-c1ccccc1 [Compound 2, 2-Phenylbenzo[d]isothiazol-3(2H)-one]
Tryptophan fluorescence quenching / binding to the YTH domain (in words) [1]: maintained both capacities | EC50 [1, 8]: 1.76 ± 0.02 µM | IC50 ([3]; 50 nM RNA, 50 nM protein, compound 0–100 μM): 23140 ± 80 nM | Disruption of the YTH/RNA interaction (AlphaScreen, in words) [3]: maintained both capacities

Molecule: O=C1c2ccccc2CN1c1ccccc1 [Compound 3, 2-phenylisoindolin-1-one]
Tryptophan fluorescence quenching / binding to the YTH domain (in words) [1]: completely abolished; also recorded: failed to generate a dose–response curve | EC50 [1, 8]: > 100 µM | Disruption of the YTH/RNA interaction (AlphaScreen, in words) [3]: completely abolished; also recorded: failed

Molecule: m6A RNA probe used in DMR
K half [4]: 63.8 nM

B1: GGACU ssRNA unmethylated (ssRNA)
RNA: CCGGACUGUC
binding result [5]: no binding

B2: GGm6ACU ssRNA (m6A-RNA) (ssRNA)
RNA: CCGGACUGUC
modifications: m6A at position 5
apparent K (half saturation) [6]: 1050 nM

B3: GAm6ACU ssRNA (ssRNA)
RNA: CCGAACUGUC
modifications: m6A at position 5
apparent K (half saturation) [6]: 140 nM

B4: GAACU ssRNA unmethylated (ssRNA)
RNA: CCGAACUGUC
binding result [5]: no binding

Second part, the molecule after the results:

EC50 [1, 8]: 1.89 ± 0.33 µM
Molecule: O=c1c2ccccc2[se]n1-c1ccc(F)cc1 [Compound 4, 2-(4-Fluorophenyl)benzo[d][1,2]selenazol-3(2H)-one]

EC50 [1, 8]: 1.63 ± 0.89 µM
Molecule: O=c1c2ccccc2sn1-c1ccc(F)cc1 [Compound 5, 2-(4-Fluorophenyl)benzo[d]isothiazol-3(2H)-one]

EC50 [1, 8]: 1.48 ± 0.26 µM
Molecule: CCN(CC)CCn1[se]c2ccccc2c1=O [Compound 6, 2-(2-(Diethylamino)ethyl)benzo[d][1,2]selenazol-3(2H)-one]

EC50 [1, 8]: 1.69 ± 0.26 µM
Molecule: CCN(CC)CCn1sc2ccccc2c1=O [Compound 7, 2-(2-(Diethylamino)ethyl)benzo[d]isothiazol-3(2H)-one]

EC50 [1, 8]: 3.35 ± 2.2 µM
Molecule: O=c1c2ccccc2[se]n1CCN1CCOCC1 [Compound 8, 2-(2-Morpholinoethyl)benzo[d][1,2]selenazol-3(2H)-one]

EC50 [1, 8]: 2.83 ± 1.08 µM
Molecule: O=c1c2ccccc2sn1CCN1CCOCC1 [Compound 9, 2-(2-Morpholinoethyl)benzo[d]isothiazol-3(2H)-one]

EC50 [1, 8]: 2.9 ± 1.8 µM
Molecule: O=C(NCCN1CCOCC1)c1ccccc1SSc1ccccc1C(=O)NCCN1CCOCC1 [Compound 10, 2,2′-Disulfanediylbis(N-(2-morpholinoethyl)benzamide)]

Tryptophan fluorescence quenching / binding to the YTH domain (in words) [1]: not upon adenosine addition
Molecule: Nc1ncnc2c1ncn2[C@@H]1O[C@H](CO)[C@@H](O)[C@H]1O [adenosine]

EC50 [1, 7]: 596 µM
Molecule: CNc1ncnc2c1ncn2[C@@H]1O[C@H](CO)[C@@H](O)[C@H]1O [m6A, N^6-methyladenosine]
